Source: patent US9079866B2, “Flap modulators” (JANSSEN PHARMACEUTICA NV, priority 2013, dated 2015)
Counter-ions that a name gives are not always drawn.

How the values were obtained:
[1] = tested on: leukotriene pathway in human whole blood (LTB4 levels); test: Human whole blood assay (A23187-stimulated LTB4); type: cell-based; conditions: Homo sapiens, human whole blood diluted 1:1 in RPMI, A23187-stimulated LTB4; read-out: LTB4 IC50 1:1
Method in brief: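 Blood (heparin) diluted 1:1 RPMI; compound pre-incubation 15 min, 37° Celsius; A23187 7 μg/mL, 30 min, 37° Celsius; plasma LTB4 by commercial kit. IC50 via 4-parameter equation.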

human FLAP = human FLAP (Homo sapiens (Human), UniProt P20292); test: FLAP binding assay (HTRF format); conditions: human FLAP wild type, HTRF format; average of two plates, duplicates
Method in brief: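 Samples were run in duplicate on each of two assay plates, the results were averaged, and the signal was expressed as an HTRF ratio.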

Chain of human FLAP (P20292 whole entry): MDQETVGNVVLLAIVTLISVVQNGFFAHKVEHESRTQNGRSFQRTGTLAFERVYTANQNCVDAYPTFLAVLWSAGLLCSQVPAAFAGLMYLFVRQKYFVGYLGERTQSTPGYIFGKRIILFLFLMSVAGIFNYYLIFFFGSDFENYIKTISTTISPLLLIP

Row | IC50 [1] | Ki (human FLAP) | Compound
1 | > 10000 nM | 351 nM | C[C@H](NS(=O)(=O)c1ccccc1-c1ccc(-c2cnc(N)cn2)c(F)c1)C(=O)O [Example 156, (S)-2-(4′-(5-Aminopyrazin-2-yl)-3′-fluoro-[1,1′-biphenyl]-2-ylsulfonamido)propanoic acid]
2 | 1840 nM | 10 nM | NC(=O)NCCNS(=O)(=O)c1ccccc1-c1ccc(-c2cnc(N)cn2)c(F)c1 [Example 157, 4′-(5-Aminopyrazin-2-yl)N—N-[2-(carbamoylamino)ethyl]-3′-fluorobiphenyl-2-sulfonamide]
3 | 1 nM | 1 nM | Nc1cnc(-c2ccc(-c3ccccc3S(=O)(=O)N[C@H]3c4ccccc4C[C@@H]3O)cc2F)cn1 [Example 158, 4′-(5-Aminopyrazin-2-yl)-3′-fluoro-N-((1S,2S)-2-hydroxy-2,3-dihydro-1H-inden-1-yl)-[1,1′-biphenyl]-2-sulfonamide]
4 | 1 nM | 1 nM | Nc1cnc(-c2ccc(-c3ccccc3S(=O)(=O)N[C@@H]3c4ccccc4C[C@H]3O)cc2F)cn1 [Example 159, 4′-(5-Aminopyrazin-2-yl)-3′-fluoro-N-((1R,2R)-2-hydroxy-2,3-dihydro-1H-inden-1-yl)-[1′,1′-biphenyl]-2-sulfonamide]
5 | 122 nM | 5 nM | Nc1cnc(-c2ccc(-c3ccccc3S(=O)(=O)N[C@H]3CCCC[C@@H]3O)cc2F)cn1 [Example 162, 4′-(5-Aminopyrazin-2-yl)-3′-fluoro-N-((1S,2S)-2-hydroxycyclohexyl)-[1,1′-biphenyl]-2-sulfonamide]
6 | 595 nM | 1 nM | Nc1cnc(-c2ccc(-c3ccccc3S(=O)(=O)Nc3ccc(C(F)(F)F)nc3)cc2F)cn1 [Example 163, 4′-(5-Aminopyrazin-2-yl)-3′-fluoro-N-[6-(trifluoromethyl)pyridin-3-yl]biphenyl-2-sulfonamide]
7 | 333 nM | 1 nM | Nc1cnc(-c2ccc(-c3ccccc3S(=O)(=O)N3CCC(c4c[nH]cn4)CC3)cc2F)cn1 [Example 164, 5-(3-Fluoro-2′-{[4-(1H-imidazol-4-yl)piperidin-1-yl]sulfonyl}biphenyl-4-yl)pyrazin-2-amine]
8 | 879 nM | 18 nM | Cc1ncc(CNS(=O)(=O)c2ccccc2-c2ccc(-c3cnc(N)cn3)c(F)c2)c(N)n1 [Example 165, N-[(4-Amino-2-methylpyrimidin-5-yl)methyl]-4′-(5-aminopyrazin-2-yl)-3′-fluorobiphenyl-2-sulfonamide]
9 | 4460 nM | 164 nM | COc1cc(NS(=O)(=O)c2ccccc2-c2ccc(-c3cnc(N)cn3)c(F)c2)nc(OC)n1 [Example 166, 4′-(5-Aminopyrazin-2-yl)-N-(2,6-dimethoxypyrimidin-4-yl)-3′-fluorobiphenyl-2-sulfonamide]
10 | 442 nM | 47 nM | Cc1cnc(NS(=O)(=O)c2ccccc2-c2ccc(-c3cnc(N)cn3)c(F)c2)cn1 [Example 167, 4′-(5-Aminopyrazin-2-yl)-3′-fluoro-N-(5-methylpyrazin-2-yl)biphenyl-2-sulfonamide]
11 | 135 nM | 14 nM | CC(C)C[C@H](NS(=O)(=O)c1ccccc1-c1ccc(-c2cnc(N)cn2)c(F)c1)C(N)=O [Example 168, (S)-2-(4′-(5-Aminopyrazin-2-yl)-3′-fluoro-[1,1′-biphenyl]-2-ylsulfonamido)-4-methylpentanamide]
12 | 20 nM | 4 nM | N#CCCN(C1CC1)S(=O)(=O)c1ccccc1-c1ccc(-c2cnc(N)cn2)c(F)c1 [Example 172, 4′-(5-Aminopyrazin-2-yl)-N-(2-cyanoethyl)-N-cyclopropyl-3′-fluorobiphenyl-2-sulfonamide]
13 | 17 nM | 1 nM | CC1(NS(=O)(=O)c2ccccc2-c2ccc(-c3cnc(N)cn3)c(F)c2)COC1 [Example 173, 4′-(5-Aminopyrazin-2-yl)-3′-fluoro-N-(3-methyloxetan-3-yl)biphenyl-2-sulfonamide]
14 | 23 nM | 2 nM | N#CCCN1CCN(S(=O)(=O)c2ccccc2-c2ccc(-c3cnc(N)cn3)c(F)c2)CC1 [Example 174, 3-(4-{[4′-(5-Aminopyrazin-2-yl)-3′-fluorobiphenyl-2-yl]sulfonyl}piperazin-1-yl)propanenitrile]
15 | 17 nM | 1 nM | COC[C@H](C)NS(=O)(=O)c1ccccc1-c1ccc(-c2cnc(N)cn2)c(F)c1 [Example 175, (S)-4′-(5-Aminopyrazin-2-yl)-3′-fluoro-N-(1-methoxypropan-2-yl)-[1,1′-biphenyl]-2-sulfonamide]
16 | 217 nM | 20 nM | CN(C)S(=O)(=O)Nc1ccccc1-c1ccc(-c2cnc(N)cn2)c(F)c1 [Example 182, N′-[4′-(5-Aminopyrazin-2-yl)-3′-fluorobiphenyl-2-yl]-N,N-dimethylsulfamide]
17 | 130 nM | 34 nM | Nc1cnc(-c2ccc(-c3ccccc3NS(=O)(=O)N3CCOCC3)cc2F)cn1 [Example 183, N-[4′-(5-Aminopyrazin-2-yl)-3′-fluorobiphenyl-2-yl]morpholine-4-sulfonamide]
18 | 51 nM | 10 nM | Nc1cnc(-c2ccc(-c3ccccc3S(=O)(=O)N3CC[C@@H](O)C3)cc2F)cn1 [Example 185, (3R)-1-{[4′-(5-Aminopyrazin-2-yl)-3′-fluorobiphenyl-2-yl]sulfonyl}pyrrolidin-3-ol trifluoroacetic acid salt]
19 | 1650 nM | 173 nM | Nc1cnc(-c2ccc(-c3ccccc3SC(F)(F)F)cc2F)cn1 [Example 189, 5-{3-Fluoro-2′-[(trifluoromethyl)sulfanyl]biphenyl-4-yl}pyrazin-2-amine]
20 | 471 nM | 58 nM | CC(C)(C)Sc1ccccc1-c1ccc(-c2cnc(N)cn2)c(F)c1 [Example 190, 5-[2′-(tert-Butylsulfanyl)-3-fluorobiphenyl-4-yl]pyrazin-2-amine]
21 | 171 nM | 58 nM | CCCS(=O)(=O)c1ccccc1-c1ccc(-c2cnc(N)cn2)c(F)c1 [Example 192, 5-[3-Fluoro-2′-(propylsulfonyl)biphenyl-4-yl]pyrazin-2-amine]
22 | 144 nM | 26 nM | CC(C)CS(=O)(=O)c1ccccc1-c1ccc(-c2cnc(N)cn2)c(F)c1 [Example 193, 5-{3-Fluoro-2′-[(2-methylpropyl)sulfonyl]biphenyl-4-yl}pyrazin-2-amine]
23 | 93 nM | 3 nM | Nc1cnc(-c2ccc(-c3ccccc3S(=O)(=O)C3CCCC3)cc2F)cn1 [Example 195, 5-[2′-(Cyclopentylsulfonyl)-3-fluorobiphenyl-4-yl]pyrazin-2-amine]
24 | 104 nM | 10 nM | Nc1cnc(-c2ccc(-c3ccccc3S(=O)(=O)C3CCC3)cc2F)cn1 [Example 196, 5-[2′-(Cyclobutylsulfonyl)-3-fluorobiphenyl-4-yl]pyrazin-2-amine]
25 | 83 nM | 10 nM | Nc1cnc(-c2ccc(-c3ccccc3S(=O)(=O)C3CC3)cc2F)cn1 [Example 197, 5-[2′-(Cyclopropylsulfonyl)-3-fluorobiphenyl-4-yl]pyrazin-2-amine]
26 | 375 nM | 83 nM | CCCCCCS(=O)(=O)c1ccccc1-c1ccc(-c2cnc(N)cn2)c(F)c1 [Example 198, 5-[3-Fluoro-2′-(hexylsulfonyl)biphenyl-4-yl]pyrazin-2-amine]
